Here are results for one compound from patent publication US6995185B2, “Δ1-pyrrolines used as pesticides” (Bayer Cropscience AG, priority 2000, dated 2006).

The experiment has as its system Liriomyza trifolii. Nature of the experiment: Liriomyza test. Format: in vivo. Conditions: 1000 ppm, bean plants (Phaseolus vulgaris) dipped. As for the experimental part: Liriomyza Test • Solvent: 3 parts by weight of dimethylformamide • Emulsifier: 1 part by weight of alkylaryl polyglycol ether To produce a suitable preparation of active compound, 1 part by weight of active compound is mixed with the stated amounts of solvent and emulsifier, and the concentrate is diluted with emulsifier-containing water to the desired concentration. Bean plants (Phaseolus vulgaris) which are infested by eggs and development stages of […] (Liriomyza trifolii) are dipped into a preparation of active compound of the desired concentration. After the desired period of time, the effect in % is determined. 100% means that all […] have been killed; 0% means that none of the […] have been killed.

Structures are written as SMILES.

Take `COC(=O)C1CC(c2c(F)cccc2F)=NC1c1ccc(-c2ccc(OC(F)(F)F)cc2)cc1` (stereo not shown) [drawing 145]: the “Kill rate in % after 7 days” value is 100%.
